Assays:
Assay type in all cases: in vivo, human
[1] = system: patients with locally advanced or metastatic Non-Small Cell Lung Cancer; experiment: Survival by stem cell score, Phase III trial OAK (NCT02008227), Atezolizumab vs Docetaxel; conditions: for HR overall survival, score low vs high: within treatment
From the text: We hypothesized that patients with a low abundance of stem cell maintenance-related cancer cells may respond to PD-L1 blockade leading to beneficial effect in patients who received the treatment. We analyzed 739 patients with non-small cell lung cancer who received Atezolizumab (MPDL3280A, n=358) and Docetaxel (n=381) in a Phase III clinical trial (NCT02008227, OAK) (https://clinicaltrials.gov/ct2/show/NCT02008227). This study was sponsored by Genentech Inc., a member of the Roche Group, which provided the study drug.
The protocol and its amendments were approved by the relevant institutional review boards or ethics committees, and all participants provided written informed consent. This study was conducted in accordance with the Declaration of Helsinki and International Conference on Harmonization Guidelines for Good Clinical Practice. Tumor specimens at baseline were archived and taken for gene expression profiling performed by RNA Sequencing (RNA-Seq). In total, 144 human stem cell related genes derived from Gene Ontology were selected and further processed resulting in a selected a list of 4 genes consisting of ASPM, CNOT3, LRPS, and PBX1, which are associated with abundance of stem cell maintenance-related cancer cells. The log2 CPM expression values of each selected gene across the whole cohort were divided at medium expression level for the higher expression ones (+) and lower/no expression ones (−). Using in-house R scripts, the two defined subgroups were plotted against the Kaplan-Meier survival curves.
(§1) As several genes linked to stem cell maintenance-related cancer cells were associated with the survival advantages, we investigated the impact of multiple genes involved in stem cell maintenance-related cancer cells by defining a cumulative cancer stem cell gene score reflecting the cumulative expression of these marker genes. Each gene's expression is first standardized by a z-score:
(§2) where μ and μ are estimated in the entire cohort or in the selected subgroups. After the standardization step, these standardized z-score values are averaged across genes within each patient. The OAK cohort was corrected for the sex of patient, age, histolog as well as PD-L1 status. […] In addition, we also identified an advantage in progression-free survival.

[2] = system: patients with locally advanced or metastatic Non-Small Cell Lung Cancer; experiment: Survival by stem cell score, Phase II trial BIRCH (NCT02031458), Atezolizumab
From the text: (§3) We hypothesized that patients with a low abundance of stem cell maintenance-related cancer cells may respond to PD-L1 blockade leading to beneficial effect in patients who received the treatment. We analyzed 597 patients with non-small cell lung cancer who received Atezolizumab in a Phase II clinical trial (NCT02031458, BIRCH) (https://clinicaltrials.gov/ct2/show/NCT02031458). This study was sponsored by Genentech Inc., a member of the Roche Group, which provided the study drug. The protocol and its amendments were approved by the relevant institutional review boards or ethics committees, and all participants provided written informed consent. This study was conducted in accordance with the Declaration of Helsinki and International Conference on Harmonization Guidelines for Good Clinical Practice.
(§4) Tumor specimens at baseline were archived and taken for gene expression profiling performed by RNA Sequencing (RNA-Seq).). In total, 144 human stem cell related genes derived from Gene Ontology were selected and further processed resulting in a selected a list of 4 genes consisting of ASPM, CNOT3, LRPS, and PBX1, which are associated with abundance of stem cell maintenance-related cancer cells. The log2 CPM expression values of each selected gene across the whole cohort were divided at medium expression level for the higher expression ones (+) and lower/no expression ones (−). Using in-house R scripts, the two defined subgroups were plotted against the Kaplan-Meier survival curves. […] Table 2 summarizes the median survival as well as HR per single gene used for the stem cell maintenance-related cancer cells signature.
as §1
as §2, with “BIRCH” for “OAK”, “age” for “age, histolog”, “smoking” for “PD-L1”

[3] = system: patients with locally advanced or metastatic Urothelial Bladder Cancer; experiment: Survival by stem cell score, Phase III trial IMvigor211 (NCT02302807), Atezolizumab vs standard of care
From the text: as §3, with “750” for “597”, “locally advanced or metastatic urothelial bladder” for “non-small cell lung”, “Atezolizumab (n=369), Paclitaxel (n=123), Vinflunine (n=194) or Docetaxel (n=41)” for “Atezolizumab”, “III” for “II”, “(NCT02302807, IMvigor 211) (https://clinicaltrials.gov/ct2/show/NCT02302807).” for “(NCT02031458, BIRCH) (https://clinicaltrials.gov/ct2/show/NCT02031458).”
as §4, with “Sequencing (RNA-Seq).” for “Sequencing (RNA-Seq).).”, “Table 3” for “Table 2”
as §1
as §2, with “IMvigor211” for “OAK”, “age” for “age, histolog”, “smoking” for “PD-L1”, “adavantage” for “advantage”

[4] = cumulative cancer stem cell score (ASPM, CNOT3, LRP5, PBX1) low
[5] = cumulative cancer stem cell score high
[6] = cumulative cancer stem cell score
[7] = gene ASPM, Stem cell score high
[8] = gene CNOT3, Stem cell score high
[9] = gene CNOT3, Stem cell score low
[10] = gene LRP5, Stem cell score high
[11] = gene PBX1, Stem cell score high
[12] = cumulative cancer stem cell score low

CC(=O)O[C@@]12CO[C@@H]1C[C@H](O)[C@@]1(C)C(=O)[C@H](O)C3=C(C)[C@@H](OC(=O)[C@H](O)[C@@H](NC(=O)OC(C)(C)C)c4ccccc4)C[C@@](O)([C@@H](OC(=O)c4ccccc4)[C@H]21)C3(C)C [Docetaxel]
median overall survival [1, 4]: 334 days
median overall survival [1, 5]: 282 days
HR overall survival, score low vs high [1, 6]: 0.76
Median survival [1, 7]: 270 days
Median survival ([1]; gene ASPM, Stem cell score low): 365 days
Median survival [1, 8]: 299 days
Median survival [1, 9]: 339 days
Median survival [1, 10]: 320 days
Median survival ([1]; gene LRP5, Stem cell score low): 312 days
Median survival [1, 11]: 262 days
Median survival ([1]; gene PBX1, Stem cell score low): 356 days

atezolizumab
HR progression-free survival, score low vs high [1, 6]: 0.69
median overall survival [1, 4]: 492 days
median overall survival [1, 5]: ~257 days
median progression-free survival [1, 5]: ~51 days
median progression-free survival [1, 12]: ~86 days
HR overall survival, score low vs high [1, 6]: 0.67
HR overall survival, predictive effect for Atezolizumab ([1]; cumulative stem cell score low group, Atezolizumab vs Docetaxel): 0.72
Median survival [1, 7]: 256 days
Median survival ([1]; gene ASPM, Stem cell score low): 467 days
HR (Atezo vs SoC) ([1]; gene ASPM, Stem cell score low, Atezolizumab vs Docetaxel): HR: 0.84
HR (low vs high) ([1]; gene ASPM, score low vs high within treatment): HR: 0.65
Median survival [1, 8]: 337 days
Median survival [1, 9]: 433 days
HR (Atezo vs SoC) ([1]; gene CNOT3, Stem cell score low, Atezolizumab vs Docetaxel): HR: 0.83
HR (low vs high) ([1]; gene CNOT3, score low vs high within treatment): HR: 0.89
Median survival [1, 10]: 384 days
Median survival ([1]; gene LRP5, Stem cell score low): 405 days
HR (Atezo vs SoC) ([1]; gene LRP5, Stem cell score low, Atezolizumab vs Docetaxel): HR: 0.83
HR (low vs high) ([1]; gene LRP5, score low vs high within treatment): HR: 0.97
Median survival [1, 11]: 329 days
Median survival ([1]; gene PBX1, Stem cell score low): 456 days
HR (Atezo vs SoC) ([1]; gene PBX1, Stem cell score low, Atezolizumab vs Docetaxel): HR: 0.92
HR (low vs high) ([1]; gene PBX1, score low vs high within treatment): HR: 0.89
HR overall survival, score low vs high [2, 6]: 0.77
HR progression-free survival, score low vs high [2, 6]: 0.74
median overall survival [2, 5]: ~437 days
median progression-free survival [2, 5]: ~89 days
median overall survival [2, 12]: ~583 days
median progression-free survival [2, 12]: ~127 days
HR (low vs high) ([2]; gene ASPM): HR: 0.78
Median survival [2, 7]: 457 days
Median survival ([2]; gene ASPM, Stem cell score low): 566 days
HR (low vs high) ([2]; gene CNOT3): HR: 0.88
Median survival [2, 8]: 482 days
Median survival [2, 9]: 510 days
HR (low vs high) ([2]; gene LRP5): HR: 1.02
Median survival [2, 10]: 498 days
Median survival ([2]; gene LRP5, Stem cell score low): 471 days
HR (low vs high) ([2]; gene PBX1): HR: 1.02
Median survival [2, 11]: 510 days
Median survival ([2]; gene PBX1, Stem cell score low): 471 days
HR overall survival, score low vs high [3, 6]: 0.64
HR progression-free survival, score low vs high [3, 6]: 0.69
median overall survival [3, 5]: ~211 days
median progression-free survival [3, 5]: ~63 days
median overall survival [3, 12]: ~357 days
median progression-free survival [3, 12]: ~66 days
HR overall survival, predictive effect for Atezolizumab ([3]; cumulative stem cell score low groups, Atezolizumab vs standard of care): 0.70
HR (low vs high) ([3]; gene ASPM): HR: 1.05
Median survival [3, 7]: 271 days
HR (Atezo vs SoC) ([3]; gene ASPM, Stem cell score low): HR: 0.93
Median survival ([3]; gene ASPM, Stem cell score low): 257 days
HR (low vs high) ([3]; gene CNOT3): HR: 0.85
Median survival [3, 8]: 242 days
HR (Atezo vs SoC) [3, 9]: HR: 0.83
Median survival [3, 9]: 297 days
HR (low vs high) ([3]; gene LRP5): HR: 0.76
Median survival [3, 10]: 241 days
HR (Atezo vs SoC) ([3]; gene LRP5, Stem cell score low): HR: 0.74
Median survival ([3]; gene LRP5, Stem cell score low): 298 days
HR (low vs high) ([3]; gene PBX1): HR: 0.74
Median survival [3, 11]: 247 days
HR (Atezo vs SoC) ([3]; gene PBX1, Stem cell score low): HR: 0.67
Median survival ([3]; gene PBX1, Stem cell score low): 279 days

Reference: patent US20230227917A1, “PREDICTING RESPONSE TO PD-1 AXIS INHIBITORS” (Hoffmann-La Roche Inc., priority 2020, published 2023)
